Measurements as given in US12622866B2, “Topical compositions and methods” (MARY KAY INC., priority 2018, dated 2026).

Experiments:
B16-F1 melanocytes = assay: B16 pigmentation assay (melanogenesis); assay type: cell-based, mouse; settings: ingredient 1%, 6 days, melanin secretion by absorbance at 405 nm
Source text: Melanogenesis is the process by which melanocytes produce melanin, a naturally produced pigment that imparts color to skin, hair, and eyes. Inhibiting melanogenesis is beneficial to prevent skin darkening and lighten dark spots associated with aging. This bioassay utilizes B16-F1 melanocytes (ATCC), an immortalized mouse melanoma cell line, to analyze the effect of compounds on melanogenesis. The endpoint of this assay is a spectrophotometric measurement of melanin production and cellular viability. B16-F1 melanocytes, were cultivated in standard DMEM growth medium with 10% fetal bovine serum (Mediatech) at 37° C. in 10% CO2 and then treated with the ingredients in the amounts indicated in Table 2 for 6 days. Following incubation, melanin secretion was measured by absorbance at 405 nm and cellular viability is quantified.

[1] = test system: Type I procollagen peptide secretion by human adult epidermal fibroblasts; assay: Collagen stimulation assay; assay type: cell-based; settings: ingredient 1%, 3 days, ELISA
Source text: Collagen is an extracellular matrix protein critical for skin structure. Increased synthesis of collagen helps improve skin firmness and elasticity. This bioassay was used to examine effects on the production of procollagen peptide (a precursor to collagen) by human epidermal fibroblasts. The endpoint of this assay was a spectrophotometric measurement that reflects the presence of procollagen peptide and cellular viability. The assay employed the quantitative sandwich enzyme immunoassay technique whereby a monoclonal antibody specific for procollagen peptide was pre-coated onto a microplate. Standards and samples were pipetted into the wells and any procollagen peptide present was bound by the immobilized antibody. […] Color development was stopped and the intensity of the color at 450 nm was measured using a microplate reader.
For generation of samples and controls, subconfluent normal human adult epidermal fibroblasts (Cascade Biologics) were cultivated in standard DMEM growth medium with 10% fetal bovine serum (Mediatech) at 37° C. in 10% CO2. […] Following incubation, cell culture medium was collected and the amount of Type I procollagen peptide secretion was quantified using the sandwich enzyme linked immuno-sorbant assay (ELISA) from Takara (#MK101) as explained above. […]

[2] = test system: TNF-α production by human epidermal keratinocytes; assay: Tumor necrosis factor alpha (TNF-α) assay; assay type: cell-based; settings: ingredient 1%, PMA 10 ng/ml, 6 hours, ELISA
Source text: The prototype ligand of the TNF superfamily, TNF-α, is a pleiotropic cytokine that plays a central role in inflammation. Increase in its expression is associated with an up regulation in pro-inflammatory activity. This bioassay was used to analyze the effect of the ingredients in the amounts listed in Table 9 on the production of TNF-α by human epidermal keratinocytes. The endpoint of this assay was a spectrophotometric measurement that reflects the presence of TNF-α and cellular viability. The assay employs the quantitative sandwich enzyme immunoassay technique whereby a monoclonal antibody specific for TNF-α has been pre-coated onto a microplate. Standards and samples were pipetted into the wells and any TNF-α present is bound by the immobilized antibody. After washing away any unbound substances, an enzyme-linked polyclonal antibody specific for TNF-α is added to the wells. Following a wash to remove any unbound antibody-enzyme reagent, a substrate solution is added to the wells and color develops in proportion to the amount of TNF-α bound in the initial step using a microplate reader for detection at 450 nm. The color development was stopped and the intensity of the color was measured. […] Following incubation, cell culture medium was collected and the amount of TNF-a secretion quantified using a sandwich enzyme linked immuno-sorbant assay (ELISA) from R&D Systems (#DTA00C).

[3] = test system: lysyl oxidase expression in skin cells; assay: Lysyl oxidase assay; assay type: cell-based; settings: ingredient 1%
Method: A lysyl oxidase assay was performed on skin cells (e.g., epidermal keratinocytes, fibroblasts, and/or dermal endothelial cells) to determine the ability of the ingredient listed in Table 8 to stimulate expression of lysyl oxidase in skin. Lysyl oxidase can catalyze crosslinking of elastin and collagens, thereby providing for a more structurally rigid matrix for skin. By increasing expression of lysyl oxidase, increased cross-linking of elastin and collagens can occur, which can be beneficial in reducing the appearance of fine lines, wrinkles, sagging skin, and/or non-elastic skin.

[4] = Antioxidant (AO) assay, total anti-oxidant capacity; assay type: biochemical; settings: ingredient 1%, Cayman Anti-Oxidant capacity kit #709001
Source text: The assay relies on the ability of antioxidants in the sample to inhibit the oxidation of ABTS® (2,2′-azino-di-[3-ethylbenzthiazoline sulphonate]) to ABTS®·+by metmyoglobin. The antioxidant system of living organisms includes enzymes such as superoxide dismutase, catalase, and glutathione peroxidase; macromolecules such as albumin, ceruloplasmin, and ferritin; and an array of small molecules, including ascorbic acid, α-tocopherol, β-carotene, reduced glutathione, uric acid, and bilirubin. The sum of endogenous and food-derived antioxidants represents the total antioxidant activity of the extracellular fluid. Cooperation of all the different antioxidants provides greater protection against attack by reactive oxygen or nitrogen radicals, than any single compound alone. Thus, the overall antioxidant capacity may give more relevant biological information compared to that obtained by the measurement of individual components, as it considers the cumulative effect of all antioxidants present in plasma and body fluids. The capacity of the antioxidants in the sample to prevent ABTS oxidation was compared with that of Trolox, a water-soluble tocopherol analogue, and was quantified as molar Trolox equivalents. […]

mushroom tyrosinase = assay: Mushroom tyrosinase activity assay; assay type: biochemical; settings: ingredient 1%, substrate L-Dopa, read at 490 nm
Method: In mammalian cells, tyrosinase catalyzes two steps in the multi-step biosynthesis of melanin pigments from tyrosine (and from the polymerization of dopachrome). Tyrosinase is localized in melanocytes and produces melanin (aromatic quinone compounds) that imparts color to skin, hair, and eyes. Purified mushroom tyrosinase (Sigma) was incubated with its substrate L-Dopa (Fisher) in the presence of each of the ingredients in the amounts indicated in Table 3. Pigment formation was evaluated by colorimetric plate reading at 490 nm. The percent inhibition of mushroom tyrosinase activity was calculated compared to non-treated controls to determine the ability of tested ingredients to inhibit the activity of purified enzyme.

Compound: NC(=O)c1cccnc1 [Niacinamide]
- % of Inhibition (B16 melanogenesis) (B16-F1 melanocytes): 30%

Compound: Sodium ascorbyl phosphate [Stay C 50]
- % of expression (Collagen 1 Expression) [1]: 36%
- % of expression (TNF-α Expression) [2]: 85%
- % of expression (Lysyl Oxidase) [3]: 500%
- % of Inhibition (Anti-oxidant capacity) [4]: 97%
- % of Inhibition (Mushroom Tyrosinase Inhibition) (mushroom tyrosinase): 26%
